Results taken from paper PMC5673977, “Transport Deficiency Is the Molecular Basis of Candida albicans Resistance to Antifungal Oligopeptides” (Frontiers in Microbiology, 2017).

Columns and labels:
Type in all cases: cell-based, Candida albicans
[1] = test system: C. albicans isolates NF1-3 and LNF1-3; test: Initial peptide uptake rate by isolates resistant to F2/F3; conditions: all six isolates NF1-3, LNF1-3; Figure 4
Description: (§1) Yeast cells grown exponentially in the YNB-SG medium were harvested by centrifugation (3000 ×g, 5 min), washed with 50 mM potassium phosphate buffer (pH 5.0 or 6.5), and suspended in the same buffer containing 1% glucose, to a final cell density corresponding to A660 ≅ 1.0. The cell suspension was incubated at 30°C. After 10 min, an oligopeptide solution was added, to give a final concentration of 100 μM. At that moment and at 5 min intervals thereafter, 2 mL samples of the cell suspension were withdrawn, immediately filtered through the Whatman GF/A filters and the filtrates were used to determine the residual peptide concentration. Then, the 1 mL portions of the filtrates were taken and combined with 1.25 mL aliquots of a solution containing 4% Na2B4O7 × 10 H2O and 0.8 mg mL^-1 of 2,4,6-trinitrobenzenesulfonate. The reaction was carried out at 37°C for 30 min. The A420 values were measured and the peptide concentration was read from the appropriate standard curve. Data were plotted as nanomoles of an oligopeptide, taken up by 1 mg (dry weight) of cells versus time. The initial uptake velocities were determined from the slopes of the linear part of the curves, in the 0- to 10-min region.
It is therefore clear that the diminished sensitivity of all six isolates to F2 and F3 was due to the reduced uptake, most likely by permease(s) of the PTR system.

[2] = test system: C. albicans opt1–opt5Δ; test: Initial peptide uptake rate; conditions: 50 mM potassium phosphate buffer (pH 5.0 or 6.5) + 1% glucose, 30°C, 100 μM peptide, TNBS A420, slope 0- to 10-min
Description: as §1

[3] = test system: C. albicans opt4Δ; test: Initial peptide uptake rate; conditions: 50 mM potassium phosphate buffer (pH 5.0 or 6.5) + 1% glucose, 30°C, 100 μM peptide, TNBS A420, slope 0- to 10-min
Description: as §1

[4] = test system: C. albicans opt1Δ; test: Initial peptide uptake rate; conditions: 50 mM potassium phosphate buffer (pH 5.0 or 6.5) + 1% glucose, 30°C, 100 μM peptide, TNBS A420, slope 0- to 10-min
Description: as §1

[5] = test system: C. albicans opt2Δ opt3Δ; test: Initial peptide uptake rate; conditions: 50 mM potassium phosphate buffer (pH 5.0 or 6.5) + 1% glucose, 30°C, 100 μM peptide, TNBS A420, slope 0- to 10-min
Description: as §1

[6] = test system: C. albicans opt1–opt5Δ ptr2Δ ptr22Δ; test: Initial peptide uptake rate; conditions: 50 mM potassium phosphate buffer (pH 5.0 or 6.5) + 1% glucose, 30°C, 100 μM peptide, TNBS A420, slope 0- to 10-min
Description: as §1

[7] = test system: C. albicans ptr2Δ ptr22Δ; test: Initial peptide uptake rate; conditions: 50 mM potassium phosphate buffer (pH 5.0 or 6.5) + 1% glucose, 30°C, 100 μM peptide, TNBS A420, slope 0- to 10-min
Description: as §1

[8] = test system: C. albicans SC5314; test: Initial peptide uptake rate; conditions: SC 5314; cells grown in YNB-SG; 50 mM potassium phosphate buffer (pH 5.0 or 6.5) + 1% glucose, 30°C, 100 μM peptide, residual peptide by TNBS A420, slope 0- to 10-min
Description: as §1

[9] = test system: C. albicans opt5Δ; test: Initial peptide uptake rate; conditions: 50 mM potassium phosphate buffer (pH 5.0 or 6.5) + 1% glucose, 30°C, 100 μM peptide, TNBS A420, slope 0- to 10-min
Description: as §1

## Ala-Ala [(Ala)2, reference compound]
[1]
  Initial uptake rate relative to wild type SC5314 cells: remarkably lower
[2]
  Uptake rate ± SD: 5.88 ± 0.40 nmol min^-1 (mg dry weight)^-1
[3]
  Uptake rate ± SD: 4.83 ± 0.31 nmol min^-1 (mg dry weight)^-1
[4]
  Uptake rate ± SD: 4.50 ± 0.36 nmol min^-1 (mg dry weight)^-1
[5]
  Uptake rate ± SD: 3.96 ± 0.29 nmol min^-1 (mg dry weight)^-1
[6]
  Uptake rate ± SD: <0.1 nmol min^-1 (mg dry weight)^-1
[7]
  Uptake rate ± SD: <0.1 nmol min^-1 (mg dry weight)^-1
[8]
  Uptake rate ± SD: 5.12 ± 0.32 nmol min^-1 (mg dry weight)^-1
[9]
  Uptake rate ± SD: 5.00 ± 0.38 nmol min^-1 (mg dry weight)^-1

## Ala-Ala-Ala [(Ala)3, reference compound]
[1]
  Initial uptake rate relative to wild type SC5314 cells: lower
[2]
  Uptake rate ± SD: 4.99 ± 0.36 nmol min^-1 (mg dry weight)^-1
[3]
  Uptake rate ± SD: 3.22 ± 0.27 nmol min^-1 (mg dry weight)^-1
[4]
  Uptake rate ± SD: 4.89 ± 0.28 nmol min^-1 (mg dry weight)^-1
[5]
  Uptake rate ± SD: 4.16 ± 0.22 nmol min^-1 (mg dry weight)^-1
[6]
  Uptake rate ± SD: <0.1 nmol min^-1 (mg dry weight)^-1
[7]
  Uptake rate ± SD: <0.1 nmol min^-1 (mg dry weight)^-1
[8]
  Uptake rate ± SD: 5.62 ± 0.33 nmol min^-1 (mg dry weight)^-1
[9]
  Uptake rate ± SD: 3.61 ± 0.30 nmol min^-1 (mg dry weight)^-1

## Ala-Ala-Ala-Ala [(Ala)4, model alanyl oligopeptide, reference compound]
[1]
  Initial uptake rate relative to wild type SC5314 cells: nearly the same or even somewhat higher
[2]
  Uptake rate ± SD: 0.12 ± 0.02 nmol min^-1 (mg dry weight)^-1
[3]
  Uptake rate ± SD: 1.72 ± 0.11 nmol min^-1 (mg dry weight)^-1
[4]
  Uptake rate ± SD: 0.79 ± 0.09 nmol min^-1 (mg dry weight)^-1
[5]
  Uptake rate ± SD: 1.93 ± 0.15 nmol min^-1 (mg dry weight)^-1
[6]
  Uptake rate ± SD: <0.1 nmol min^-1 (mg dry weight)^-1
[7]
  Uptake rate ± SD: 2.72 ± 0.16 nmol min^-1 (mg dry weight)^-1
[8]
  Uptake rate ± SD: 3.75 ± 0.19 nmol min^-1 (mg dry weight)^-1
[9]
  Uptake rate ± SD: 1.55 ± 0.11 nmol min^-1 (mg dry weight)^-1
